Test results published in patent publication US4459290A, “C-23-Modified derivatives of OMT, pharmaceutical compositions and method of use” (priority 1982, dated 1984).
In brackets after ≈: the same amount, converted by molar mass. Read-outs that look alike come from different tables or passages of the source.

How the values were obtained:
[1] = test system: Escherichia coli EC14; test: MIC, standard agar-dilution assay (Table V); format: cell-based; conditions: Escherichia coli
Procedure, shortened: (§1)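 Growth inhibition in liquid medium, in a routine microtiter broth-dilution series, gave the MIC against staphylococci and pasteurellae; the gram-negative enteric strain was tested by conventional agar dilution instead.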

[2] = test system: Escherichia coli N10; test: MIC, standard agar-dilution assay (Table V); format: cell-based; conditions: Escherichia coli
Procedure, shortened: as §1

[3] = test system: Klebsiella pneumoniae KAE; test: MIC, standard agar-dilution assay (Table V); format: cell-based; conditions: Klebsiella pneumoniae
Procedure, shortened: as §1

[4] = test system: Klebsiella pneumoniae X26; test: MIC, standard agar-dilution assay (Table V); format: cell-based; conditions: Klebsiella pneumoniae
Experimental: (§2) Especially noteworthy is the improved activity against gram-negative bacteria for several derivatives when compared to the activity of OMT. […] The MIC's in Tables V and VI were determined by standard agar-dilution assays. The MIC's in Table VII were obtained using a conventional broth-dilution microtiter test.

[5] = test system: Shigella sonnei N9; test: MIC, standard agar-dilution assay (Table V); format: cell-based
Procedure, shortened: as §1

[6] = test system: Staphylococcus aureus S13E; test: MIC, standard agar-dilution assay (Table V); format: cell-based; conditions: Staphylococcus aureus, S13E
Experimental: as §2

[7] = test system: Staphylococcus aureus V41; test: MIC, standard agar-dilution assay (Table V); format: cell-based; conditions: Staphylococcus aureus, V41
Experimental: as §2

[8] = test system: Staphylococcus aureus X1.1; test: MIC, standard agar-dilution assay (Table V); format: cell-based; conditions: Staphylococcus aureus; S. aureus X1.1; agar dilution; read-out: MIC
Experimental: as §2

[9] = test system: Staphylococcus aureus X400; test: MIC, standard agar-dilution assay (Table V); format: cell-based; conditions: Staphylococcus aureus
Experimental: as §2

[10] = test system: Staphylococcus epidermidis EPI1; test: MIC, standard agar-dilution assay (Table V); format: cell-based; conditions: Staphylococcus epidermidis; S. epidermidis EPI1; agar dilution; read-out: MIC
Experimental: as §2

[11] = test system: Staphylococcus epidermidis EPI2; test: MIC, standard agar-dilution assay (Table V); format: cell-based; conditions: Staphylococcus epidermidis; S. epidermidis EPI2; agar dilution; read-out: MIC
Experimental: as §2

[12] = test system: Streptococcus Group 9960; test: MIC, standard agar-dilution assay (Table V); format: cell-based; conditions: GROUP9960
Experimental: as §2

[13] = test system: Streptococcus Group D X66; test: MIC, standard agar-dilution assay (Table V); format: cell-based
Experimental: as §2

[14] = test system: Haemophilus influenzae Holt; test: MIC, standard agar-dilution assay (Table V); format: cell-based; conditions: Haemophilus influenzae; H. influenzae Holt, ampicillin-sensitive strain; agar dilution; read-out: MIC
Experimental: (§3) The MIC's in Tables V and VI were determined by standard agar-dilution assays. The MIC's in Table VII were obtained using a conventional broth-dilution microtiter test.

[15] = test system: Haemophilus influenzae R252; test: MIC, standard agar-dilution assay (Table V); format: cell-based; conditions: Haemophilus influenzae
Experimental: as §3

[16] = test system: Streptococcus pyogenes C203; test: MIC, standard agar-dilution assay (Table V); format: cell-based; conditions: Streptococcus pyogenes; S. pyogenes C203; agar dilution; read-out: MIC
Experimental: as §3

[17] = test system: Streptococcus pneumoniae Park I; test: microbe, parasite or virus in culture; format: cell-based; conditions: Streptococcus pneumoniae, read-out: MIC
Experimental: as §2

[18] = test system: Enterobacter aerogenes C32; test: MIC, standard agar-dilution assay (Table VI); format: cell-based; conditions: Klebsiella aerogenes
Experimental: as §2

[19] = test system: Proteus rettgeri C24; test: MIC, standard agar-dilution assay (Table VI); format: cell-based; conditions: Providencia rettgeri, P. rettgeri C24
Experimental: as §2

[20] = test system: Proteus rettgeri PR7; test: MIC, standard agar-dilution assay (Table VI); format: cell-based; conditions: Providencia rettgeri; P. rettgeri PR7; agar dilution; read-out: MIC
Experimental: as §2

[21] = test system: Salmonella heidelberg X514; test: MIC, standard agar-dilution assay (Table VI); format: cell-based; conditions: Salmonella enterica
Experimental: as §2

[22] = test system: Mycoplasma gallisepticum; test: MIC, broth-dilution microtiter test (Table VII); format: cell-based; conditions: Mycoplasmoides gallisepticum; M. gallisepticum; broth-dilution microtiter; read-out: MIC
Experimental: as §2

[23] = test system: Mycoplasma hyorhinis; test: MIC, broth-dilution microtiter test (Table VII); format: cell-based; conditions: M. hyorhinis; broth-dilution microtiter; read-out: MIC
Experimental: as §2

[24] = test system: Mycoplasma synoviae; test: MIC, broth-dilution microtiter test (Table VII); format: cell-based; conditions: Mycoplasmopsis synoviae; M. synoviae; broth-dilution microtiter; read-out: MIC
Experimental: as §2

[25] = test system: Pasteurella hemolytica 22C; test: MIC, broth-dilution microtiter test (Table VII); format: cell-based; conditions: Pasteurella, P. hemolytica 22C, read-out: MIC
Procedure, shortened: as §1

[26] = test system: Pasteurella hemolytica 23C; test: MIC, broth-dilution microtiter test (Table VII); format: cell-based; conditions: Pasteurella, P. hemolytica 23C, read-out: MIC
Procedure, shortened: as §1

[27] = test system: Pasteurella hemolytica 41D; test: MIC, broth-dilution microtiter test (Table VII); format: cell-based; conditions: Pasteurella, P. hemolytica 41D, read-out: MIC
Procedure, shortened: as §1

[28] = test system: Pasteurella multocida 17E; test: MIC, broth-dilution microtiter test (Table VII); format: cell-based; conditions: Pasteurella multocida; P. multocida 17E, bovine isolate; broth-dilution microtiter; read-out: MIC
Procedure, shortened: (§4)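 Broth microdilution, run as a conventional microtiter test, supplied MICs for the gram-positive S. aureus and the Pasteurella isolates. Enterobacter data instead rest on a standard agar-dilution procedure.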

[29] = test system: Pasteurella multocida 22A; test: MIC, broth-dilution microtiter test (Table VII); format: cell-based; conditions: Pasteurella multocida; P. multocida 22A; broth-dilution microtiter; read-out: MIC
Procedure, shortened: as §4

[30] = test system: Pasteurella multocida 40G; test: MIC, broth-dilution microtiter test (Table VII); format: cell-based; conditions: Pasteurella multocida
Procedure, shortened: as §4

[31] = test system: Pasteurella multocida 60A; test: MIC, broth-dilution microtiter test (Table VII); format: cell-based; conditions: Pasteurella multocida; P. multocida 60A, avian isolate; broth-dilution microtiter; read-out: MIC
Procedure, shortened: as §4

[32] = test system: Pasteurella multocida 68C; test: MIC, broth-dilution microtiter test (Table VII); format: cell-based; conditions: Pasteurella multocida; P. multocida 68C; broth-dilution microtiter; read-out: MIC
Procedure, shortened: as §4

[33] = test system: Staphylococcus aureus; test: MIC, broth-dilution microtiter test (Table VII); format: cell-based; conditions: Staphylococcus aureus; S. aureus; broth-dilution microtiter; read-out: MIC
Procedure, shortened: as §4

[34] = test system: Streptococcus sp. 80; test: MIC, broth-dilution microtiter test (Table VII); format: cell-based; conditions: Streptococcus sp. 80; broth-dilution microtiter; read-out: MIC
Experimental: as §2

[35] = test system: Streptococcus pyogenes C203; test: ED50 in mice experimentally infected with S. pyogenes C203 (Table VIII); format: in vivo
Experimental: The C-23 modified derivatives of OMT of this invention have shown in vivo antimicrobial activity against experimental infections. When two doses of test compound were administered to mice experimentally infected with a gram-positive bacterium, S. pyogenes C203, the activity observed was measured as an ED50 value [effective dose in mg/kg to protect 50% of the test animals: see Warren Wick, et al., J. Bacteriol. 81, 233-235 (1961)].

[36] = C203, sc, mice, subcutaneous, doses given 1 and 4 hours postinfection, read-out: ED50, Subcutaneous

SMILES | MIC [3] | MIC [5] | MIC [6] | MIC [7] | MIC [8] | MIC [10] | MIC [11] | MIC [12] | MIC [14] | MIC [16] | MIC [19] | MIC [20] | MIC [22] | MIC [23] | MIC [24] | MIC [25] | MIC [26] | MIC [27] | MIC [28] | MIC [29] | further results
CCC1OC(=O)CC(O)C(C)C(OC2OC(C)C(O)C(N(C)C)C2O)C(CC=O)CC(C)C(=O)C=CC(C)=CC1CF (stereo not drawn) [Compound 15, 23-Deoxy-23-fluoro-OMT] | 64 µg/mL (≈ 107 µM) | 32 µg/mL (≈ 53.4 µM) | 0.5 µg/mL (≈ 0.834 µM) | 0.5 µg/mL (≈ 0.834 µM) | 0.25 µg/mL (≈ 0.417 µM) | 0.25 µg/mL (≈ 0.417 µM) | 0.5 µg/mL (≈ 0.834 µM) | 0.5 µg/mL (≈ 0.834 µM) | 1 µg/mL (≈ 1.67 µM) | 0.125 µg/mL (≈ 0.208 µM) | 32 µg/mL (≈ 53.4 µM) | 32 µg/mL (≈ 53.4 µM) | 0.09 µg/mL (≈ 0.15 µM) | 0.78 µg/mL (≈ 1.3 µM) | 0.39 µg/mL (≈ 0.65 µM) | 3.12 µg/mL (≈ 5.2 µM) | 6.25 µg/mL (≈ 10.4 µM) | 3.12 µg/mL (≈ 5.2 µM) | 3.12 µg/mL (≈ 5.2 µM) | 3.12 µg/mL (≈ 5.2 µM) | MIC ([1]; E. coli EC14, agar dilution, read-out: MIC): 32 µg/mL (≈ 53.4 µM); MIC ([2]; E. coli N10, agar dilution, read-out: MIC): 32 µg/mL (≈ 53.4 µM); MIC ([4]; K. pneumoniae X26, agar dilution, read-out: MIC): 2 µg/mL (≈ 3.33 µM); MIC ([9]; X400): 0.5 µg/mL (≈ 0.834 µM); MIC [13]: 0.5 µg/mL (≈ 0.834 µM); MIC ([15]; R252): 0.5 µg/mL (≈ 0.834 µM); MIC ([17]; S. pneumoniae Park I, agar dilution): 0.125 µg/mL (≈ 0.208 µM); MIC ([18]; E. aerogenes C32, agar dilution, read-out: MIC): 64 µg/mL (≈ 107 µM); MIC ([21]; S. heidelberg X514, agar dilution, read-out: MIC): 64 µg/mL (≈ 107 µM); MIC ([30]; P. multocida 40G, broth-dilution microtiter, read-out: MIC): 1.56 µg/mL (≈ 2.6 µM); MIC [31]: 3.12 µg/mL (≈ 5.2 µM); MIC [32]: 3.12 µg/mL (≈ 5.2 µM); MIC [33]: 1.56 µg/mL (≈ 2.6 µM); MIC [34]: ≤ 0.78 µg/mL; ED50 ([35]; C203, po, read-out: ED50, Oral): > 100 mg/kg; ED50 [35, 36]: 4.6 mg/kg
CCC1OC(=O)CC(O)C(C)C(OC2OC(C)C(O)C(N(C)C)C2O)C(CC=O)CC(C)C(=O)C=CC(C)=CC1CSc1ccccc1 (stereo not drawn) [Compound 2, 23-Deoxy-23-(phenyl)thio-OMT] | 64 µg/mL (≈ 92.8 µM) | 16 µg/mL (≈ 23.2 µM) | 0.06 µg/mL (≈ 0.087 µM) | 0.125 µg/mL (≈ 0.181 µM) | 0.125 µg/mL (≈ 0.181 µM) | 0.125 µg/mL (≈ 0.181 µM) | 0.125 µg/mL (≈ 0.181 µM) | 0.5 µg/mL (≈ 0.725 µM) | 1 µg/mL (≈ 1.45 µM) | 0.015 µg/mL (≈ 0.0217 µM) | 16 µg/mL (≈ 23.2 µM) | 16 µg/mL (≈ 23.2 µM) | 0.09 µg/mL (≈ 0.13 µM) | 12.5 µg/mL (≈ 18.1 µM) | 0.39 µg/mL (≈ 0.565 µM) | 3.12 µg/mL (≈ 4.52 µM) | 3.12 µg/mL (≈ 4.52 µM) | 1.56 µg/mL (≈ 2.26 µM) | 1.56 µg/mL (≈ 2.26 µM) | 1.56 µg/mL (≈ 2.26 µM) | MIC ([1]; EC14): 32 µg/mL (≈ 46.4 µM); MIC ([2]; N10): 32 µg/mL (≈ 46.4 µM); MIC ([4]; X26): 2 µg/mL (≈ 2.9 µM); MIC ([9]; S. aureus X400, methicillin-resistant strain, agar dilution, read-out: MIC): 0.125 µg/mL (≈ 0.181 µM); MIC ([13]; Streptococcus Group D X66, agar dilution, read-out: MIC): 0.06 µg/mL (≈ 0.087 µM); MIC ([15]; H. influenzae R252, ampicillin-resistant strain, agar dilution, read-out: MIC): 1 µg/mL (≈ 1.45 µM); MIC [17]: 0.06 µg/mL (≈ 0.087 µM); MIC ([18]; C32): 32 µg/mL (≈ 46.4 µM); MIC ([21]; X514): 64 µg/mL (≈ 92.8 µM); MIC ([30]; 40G): 0.78 µg/mL (≈ 1.13 µM); MIC [31]: 1.56 µg/mL (≈ 2.26 µM); MIC [32]: 1.56 µg/mL (≈ 2.26 µM); MIC [33]: 0.39 µg/mL (≈ 0.565 µM); MIC [34]: 0.09 µg/mL (≈ 0.13 µM); ED50 ([35]; C203, po, read-out: ED50, Oral): > 100 mg/kg; ED50 [35, 36]: 25.7 mg/kg
